In ChEMBL document CHEMBL1156067, “Pyrimidine-based antagonists of h-MCH-R1 derived from ATC0175: in vitro profiling and in vivo evaluation” (Bioorg Med Chem Lett, 2009):
Activity calls are given as the source filed them. No cut-off for these calls is given here.

Legend:
[1] = target: T1, Melanin-concentrating hormone receptor 1 (Homo sapiens, UniProt Q99705); experiment: Antagonist activity at CART form of human MCH1 receptor expressed in HEK293 cells coexpressing Galphaq assessed as inhibition of MCH-induced intracellular calcium level by FLIPR assay; type: functional, cell-based
Target sequence in this assay (Q99705 whole entry, looked up): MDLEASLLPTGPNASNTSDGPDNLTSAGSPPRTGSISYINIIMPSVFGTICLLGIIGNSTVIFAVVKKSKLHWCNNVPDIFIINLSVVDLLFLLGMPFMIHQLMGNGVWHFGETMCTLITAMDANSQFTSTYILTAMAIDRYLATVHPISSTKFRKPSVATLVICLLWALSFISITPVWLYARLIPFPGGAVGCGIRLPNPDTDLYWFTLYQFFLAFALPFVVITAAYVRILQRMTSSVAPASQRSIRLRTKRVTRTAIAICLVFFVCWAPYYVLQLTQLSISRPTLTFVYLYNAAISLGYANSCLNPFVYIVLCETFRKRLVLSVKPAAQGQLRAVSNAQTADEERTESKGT

[2] = target: T1, Melanin-concentrating hormone receptor 1; experiment: Antagonist activity at CART form of human MCH1 receptor expressed in HEK293 cells coexpressing Galphaq assessed as inhibition of MCH-induced intracellular calcium level up to 10 uM by FLIPR assay; type: functional, cell-based
Target sequence in this assay (Q99705 whole entry): as the sequence (Q99705 whole entry, looked up) above

[3] = target: 5-hydroxytryptamine receptor 2B (Homo sapiens, UniProt P41595); experiment: Displacement of [3H]rauwolsine from human 5HT2B receptor
Chain of 5-hydroxytryptamine receptor 2B (P41595 whole entry): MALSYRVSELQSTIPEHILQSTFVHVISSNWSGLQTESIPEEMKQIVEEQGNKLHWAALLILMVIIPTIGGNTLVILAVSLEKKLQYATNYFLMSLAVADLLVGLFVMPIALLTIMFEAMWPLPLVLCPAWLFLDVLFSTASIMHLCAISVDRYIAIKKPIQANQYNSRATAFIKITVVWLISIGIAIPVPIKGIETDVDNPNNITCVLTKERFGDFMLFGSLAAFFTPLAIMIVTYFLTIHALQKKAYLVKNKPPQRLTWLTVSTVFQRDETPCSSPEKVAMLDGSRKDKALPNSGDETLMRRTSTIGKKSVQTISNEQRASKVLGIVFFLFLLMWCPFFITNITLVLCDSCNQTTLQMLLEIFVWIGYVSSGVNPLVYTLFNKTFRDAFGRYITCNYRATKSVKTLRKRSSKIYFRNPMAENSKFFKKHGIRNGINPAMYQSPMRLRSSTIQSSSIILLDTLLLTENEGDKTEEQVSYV

Histamine H1 receptor = Histamine H1 receptor (Homo sapiens, UniProt P35367); experiment: Displacement of [3H]pyrilamine from human histamine H1 receptor
Chain of Histamine H1 receptor (P35367 whole entry): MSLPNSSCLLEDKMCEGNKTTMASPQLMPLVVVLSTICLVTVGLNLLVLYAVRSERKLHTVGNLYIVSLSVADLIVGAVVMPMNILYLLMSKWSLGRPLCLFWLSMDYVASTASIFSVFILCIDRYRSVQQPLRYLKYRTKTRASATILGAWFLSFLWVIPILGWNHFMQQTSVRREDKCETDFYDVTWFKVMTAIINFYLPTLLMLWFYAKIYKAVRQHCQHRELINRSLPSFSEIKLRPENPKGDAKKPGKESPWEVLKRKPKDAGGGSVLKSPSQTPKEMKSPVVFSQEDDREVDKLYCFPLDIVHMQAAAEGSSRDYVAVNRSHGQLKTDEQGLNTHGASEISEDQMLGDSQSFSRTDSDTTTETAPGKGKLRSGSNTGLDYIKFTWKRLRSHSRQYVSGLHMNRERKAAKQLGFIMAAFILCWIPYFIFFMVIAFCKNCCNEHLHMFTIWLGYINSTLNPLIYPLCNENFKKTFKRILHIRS

[4] = target: T2, Alpha-1A adrenergic receptor (Homo sapiens, UniProt P35348); experiment: Displacement of [3H]prazosin from human adrenergic alpha1A receptor
T2 sequence (P35348 whole entry): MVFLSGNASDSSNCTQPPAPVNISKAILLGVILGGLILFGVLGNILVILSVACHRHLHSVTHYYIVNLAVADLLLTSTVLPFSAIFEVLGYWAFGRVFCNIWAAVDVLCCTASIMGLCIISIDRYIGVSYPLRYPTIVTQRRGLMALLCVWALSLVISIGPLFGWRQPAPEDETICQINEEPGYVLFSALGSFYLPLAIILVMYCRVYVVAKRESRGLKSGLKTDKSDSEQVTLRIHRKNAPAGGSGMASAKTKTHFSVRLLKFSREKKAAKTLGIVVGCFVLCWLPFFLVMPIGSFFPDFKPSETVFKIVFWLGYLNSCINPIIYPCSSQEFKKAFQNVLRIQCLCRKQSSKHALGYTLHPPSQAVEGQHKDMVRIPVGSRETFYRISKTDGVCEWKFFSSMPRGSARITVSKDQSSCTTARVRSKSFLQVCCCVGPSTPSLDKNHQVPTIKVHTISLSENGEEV

[5] = target: T3, Alpha-2A adrenergic receptor (Homo sapiens, UniProt P08913); experiment: Displacement of [3H]MK-912 from human adrenergic alpha2A receptor
T3 sequence (P08913 whole entry): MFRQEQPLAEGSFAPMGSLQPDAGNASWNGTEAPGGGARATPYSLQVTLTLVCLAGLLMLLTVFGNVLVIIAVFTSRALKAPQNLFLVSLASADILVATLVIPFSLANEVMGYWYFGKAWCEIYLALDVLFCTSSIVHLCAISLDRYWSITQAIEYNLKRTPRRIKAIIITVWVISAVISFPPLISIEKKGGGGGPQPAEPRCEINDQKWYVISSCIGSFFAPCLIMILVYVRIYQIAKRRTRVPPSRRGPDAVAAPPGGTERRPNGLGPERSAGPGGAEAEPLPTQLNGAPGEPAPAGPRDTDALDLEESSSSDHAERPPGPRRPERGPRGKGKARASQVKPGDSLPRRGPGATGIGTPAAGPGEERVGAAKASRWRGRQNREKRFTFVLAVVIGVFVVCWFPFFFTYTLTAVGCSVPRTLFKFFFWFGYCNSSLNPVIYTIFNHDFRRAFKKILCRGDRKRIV

Rattus norvegicus [6] = experiment: Reduction in body weight in diet-induced obese Wistar rat chronic feeding model at 10 mg/kg, po once daily up to 28 days measured after 2 weeks of recovery period; type: functional, organism-based; parameters: dose 10 mg/kg
Rattus norvegicus [7] = experiment: Reduction in body weight in diet-induced obese Wistar rat chronic feeding model at 10 mg/kg, po once daily after 28 days relative to control; type: functional; parameters: scale not given: the % may be the effect or the level left
[8] = Plasma concentration in Sprague-Dawley rat at 10 mg/kg, po after 2 hrs; type: ADME, organism-based; parameters: dose 10 mg/kg, route oral
Rattus norvegicus [9] = experiment: Reduction in food intake in diet-induced obese Wistar rat chronic feeding model at 10 mg/kg, po once daily after 2 days; type: functional, organism-based; parameters: dose 10 mg/kg
Rattus norvegicus [10] = experiment: Reduction in body weight in diet-induced obese Wistar rat chronic feeding model at 5 mg/kg, po once daily after 28 days relative to control; type: functional; parameters: scale not given: the % may be the effect or the level left
[11] = Plasma concentration in Sprague-Dawley rat at 10 mg/kg, po after 4 hrs; type: ADME, organism-based; parameters: dose 10 mg/kg, route oral
Rattus norvegicus [12] = experiment: Reduction in body weight in diet-induced obese Wistar rat chronic feeding model at 15 mg/kg, po once daily up to 14 days measured after recovery period; type: functional, organism-based; parameters: dose 15 mg/kg
Rattus norvegicus [13] = experiment: Reduction in body weight in diet-induced obese Wistar rat chronic feeding model at 15 mg/kg, po once daily after 14 days relative to control; type: functional; parameters: scale not given: the % may be the effect or the level left
Rattus norvegicus [14] = experiment: Reduction in food intake in diet-induced obese Wistar rat chronic feeding model at 10 mg/kg, po once daily up to 28 days measured after 2 weeks of recovery period; type: functional, organism-based; parameters: dose 10 mg/kg
[15] = Drug level in Sprague-Dawley rat brain at 10 mg/kg, po after 4 hrs; type: ADME, organism-based; parameters: dose 10 mg/kg, route oral
Rattus norvegicus [16] = experiment: Toxicity in rat at 100 mg/kg, po once daily after 14 days; conditions: in vivo, 336 h
[17] = target: T4, 5-hydroxytryptamine receptor 1A (Homo sapiens, UniProt P08908); experiment: Inhibition of human 5HT1A
T4 sequence (P08908 whole entry): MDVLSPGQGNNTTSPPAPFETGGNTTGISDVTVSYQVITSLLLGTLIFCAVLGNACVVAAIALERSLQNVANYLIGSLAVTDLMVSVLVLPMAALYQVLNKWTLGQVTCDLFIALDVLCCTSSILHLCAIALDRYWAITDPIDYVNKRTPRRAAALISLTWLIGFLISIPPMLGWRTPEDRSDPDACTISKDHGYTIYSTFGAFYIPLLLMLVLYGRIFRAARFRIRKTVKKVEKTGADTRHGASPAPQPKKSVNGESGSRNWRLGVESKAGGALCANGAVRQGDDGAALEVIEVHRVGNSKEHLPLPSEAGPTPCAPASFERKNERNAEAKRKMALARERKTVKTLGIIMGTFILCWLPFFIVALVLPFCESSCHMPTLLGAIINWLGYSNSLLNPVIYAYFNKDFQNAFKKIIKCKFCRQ

Rattus norvegicus [18] = experiment: Reduction in food intake in diet-induced obese Wistar rat chronic feeding model at 1 mg/kg, po once daily after 28 days; type: functional, organism-based; parameters: dose 1 mg/kg
Rattus norvegicus [19] = experiment: Reduction in food intake in diet-induced obese Wistar rat chronic feeding model at 5 mg/kg, po once daily after 28 days; type: functional, organism-based; parameters: dose 5 mg/kg
[20] = Drug level in Sprague-Dawley rat brain at 10 mg/kg, po after 2 hrs; type: ADME, organism-based; parameters: dose 10 mg/kg, route oral
Rattus norvegicus [21] = experiment: Reduction in body weight in diet-induced obese Wistar rat chronic feeding model at 1 mg/kg, po once daily after 28 days; type: functional, organism-based; parameters: dose 1 mg/kg
Rattus norvegicus [22] = experiment: Reduction in food intake in diet-induced obese Wistar rat chronic feeding model at 15 mg/kg, po once daily up to 14 days measured after recovery period; type: functional, organism-based; parameters: dose 15 mg/kg
Rattus norvegicus [23] = experiment: Reduction in food intake in diet-induced obese Wistar rat chronic feeding model at 15 mg/kg, po once daily after 3 days; type: functional, organism-based; parameters: dose 15 mg/kg
Rattus norvegicus [24] = experiment: Reduction in food intake in diet-induced obese Wistar rat chronic feeding model at 6 mg/kg, po once daily measured after 14 days; type: functional, organism-based; parameters: dose 6 mg/kg
Rattus norvegicus [25] = experiment: Reduction in food intake in diet-induced obese Wistar rat chronic feeding model at 6 mg/kg, po once daily after 8 days; type: functional, organism-based; parameters: dose 6 mg/kg

With `Cc1cc(N(C)C)nc(N[C@H]2CC[C@@H](NC(=O)c3ccc(F)cc3)CC2)n1` the IC50 [1] was 25 nM.
For `CN(C)c1ccnc(N[C@H]2CC[C@@H](NC(=O)c3ccc(F)c(F)c3)CC2)n1`, the Activity [2] was “inactive”.
With `Cc1cc(N(C)C)nc(N[C@H]2CC[C@@H](NC(=O)c3ccc(Cl)cc3)CC2)n1` the IC50 [3] was 170 nM, the IC50 (Histamine H1 receptor) was 800 nM and the IC50 [4] was 3000 nM. The IC50 [5] was 730 nM and the IC50 [1] was 16 nM.
For `CNc1nc(N[C@H]2CC[C@@H](CNC(=O)c3cc(C(F)(F)F)cc(C(F)(F)F)c3)CC2)ncc1C`, the IC50 [1] was 200 nM.
For `Cc1cc(N(C)C)nc(N[C@H]2CC[C@@H](CNC(=O)c3cc(Cl)cc(Cl)c3)CC2)n1`, the IC50 [1] was 64 nM.
With `Cc1cnc(N[C@H]2CC[C@@H](CNC(=O)c3cc(C(F)(F)F)cc(C(F)(F)F)c3)CC2)nc1N1CCCC1` the Activity [2] was “inactive”.
Work on `Cc1cnc(N[C@H]2CC[C@@H](NC(=O)c3ccc(F)cc3)CC2)nc1N(C)C` yielded an IC50 [3] of 300 nM, an IC50 (Histamine H1 receptor) of 810 nM and an IC50 [4] of 7500 nM. It also gave an IC50 [5] of 470 nM and an IC50 [1] of 6 nM.
Work on `COc1cccc(C(=O)N[C@H]2CC[C@@H](Nc3nc(C)cc(N(C)C)n3)CC2)c1` yielded an IC50 [1] of 7.6 nM.
For `Cc1cnc(N[C@H]2CC[C@@H](NC(=O)c3ccc(Cl)cc3)CC2)nc1N(C)C`, the IC50 [3] was 300 nM, the IC50 (Histamine H1 receptor) was 760 nM and the IC50 [4] was greater than 10000 nM. For the same compound, the IC50 [5] was 1590 nM and the IC50 [1] was 10 nM.
For `CN(C)CC1CCc2cc(NC(=O)c3ccc(-c4ccc(F)cc4)cc3)ccc2C1` (configuration not stated), the IC50 [1] was 5.5 nM.
In the case of `Cc1cnc(N[C@H]2CC[C@@H](CNC(=O)c3cc(C(F)(F)F)cc(C(F)(F)F)c3)CC2)nc1N`, the IC50 [1] is reported as 600 nM.
For `Cc1cc(N(C)C)nc(N[C@H]2CC[C@@H](NC(=O)c3cc(C(F)(F)F)cc(C(F)(F)F)c3)CC2)n1`, the IC50 [3] was greater than 10000 nM, the IC50 (Histamine H1 receptor) was 1210 nM and the IC50 [4] was 1320 nM. For the same compound, the IC50 [5] was 200 nM and the IC50 [1] was 8 nM.
For `Cc1cnc(N[C@H]2CC[C@@H](CNC(=O)c3cc(C(F)(F)F)cc(C(F)(F)F)c3)CC2)nc1N(C)C`, the Activity (Rattus norvegicus [6]) was “inactive”, the Activity (Rattus norvegicus [7]) was 17% and the concentration at 2 h [8] was 50 ng/mL. The Activity (Rattus norvegicus [9]) was “Active”, the Activity (Rattus norvegicus [10]) was -5.4% and the concentration at 4 h [11] was 63 ng/mL. For the same compound, the Activity (Rattus norvegicus [12]) was “inactive”, the IC50 [3] was 3100 nM and the Activity (Rattus norvegicus [13]) was greater than 15%. For the same compound, the Activity (Rattus norvegicus [14]) was “inactive”, the concentration at 4 h [15] was 10 ng/g and the Activity (Rattus norvegicus [16]) was “Non-toxic”. For the same compound, the IC50 [17] was 4800 nM, the Activity (Rattus norvegicus [18]) was “inactive” and the Activity (Rattus norvegicus [19]) was “inactive”. It also gave an IC50 (Histamine H1 receptor) greater than 10000 nM, an IC50 [4] of 3200 nM and an IC50 [5] of 310 nM. For the same compound, the IC50 [1] was 5 nM, the concentration at 2 h [20] was 9 ng/g and the Activity (Rattus norvegicus [21]) was “inactive”. The Activity (Rattus norvegicus [22]) was “inactive” and the Activity (Rattus norvegicus [23]) was “Active”.
In the case of `CC(C)CC(N(C)C)C1(c2ccc(Cl)cc2)CCC1` (configuration not stated), the Activity (Rattus norvegicus [24]) is reported as “inactive” and the Activity (Rattus norvegicus [25]) is reported as “Active”.
`Cc1cnc(N[C@H]2CC[C@@H](CNC(=O)c3cc(Cl)cc(Cl)c3)CC2)nc1N(C)C` showed an IC50 [1] of 4 nM.
For `Cc1nc(N[C@H]2CC[C@@H](NC(=O)c3ccc(F)c(F)c3)CC2)nc(N(C)C)c1C`, the IC50 [1] was 2.3 nM.
With `Cc1cnc(N[C@H]2CC[C@@H](NC(=O)c3ccc(F)c(F)c3)CC2)nc1NC(C)C` the Activity [2] was “inactive”.
With `Cc1cc(N(C)C)nc(N[C@H]2CC[C@@H](NC(=O)c3cccc(Cl)c3)CC2)n1` the IC50 [1] was 6.5 nM.
